One assay has as its system A375 malignant melanoma. Kind of assay: Inhibition of Cell Proliferation, 14C-thymidine incorporation, A375. The class given is cell-based. To be noted: Homo sapiens, A-375; Cell Line A375. How it is done:
(§1) The ability of a test compound to inhibit the proliferation of cell growth was determined by measuring incorporation of ^14C-labelled thymidine into newly synthesized DNA within the cells. This method was used on cell lines derived from carcinomas originating from several tissues such as HeLa cervical adenocarcinoma (American Type Culture Collection (ATCC), Virginia, Cat. #CCL-2), A375 malignant melanoma (ATCC CRL-1619), SK-OV-3 ovarian adenocarcinoma (ATCC HTB-77) HCT-116 colon carcinoma (CCL-247), PC-3 prostate adenocarcinoma (ATCC CRL-1435), and MDA-MB-231 (Xenogen Corp.) In this way the effect of a compound on cell growth of cells with many different phenotypes can be determined. Cells were trypsinized and counted and 3000-8000 cells were added to each well of a 96-well CytoStar tissue culture treated scintillating microplate (Amersham #RPNQ0160) in complete medium in a volume of 100 µl. Cells were incubated for 24 hours in complete medium at 37°C in an atmosphere containing 5% CO2. Next, 1 µl of test compound in 100% DMSO was added to the wells of the plate. DMSO only was added to control wells. Cells were incubated for 24 more hours in complete medium at 37°C in an atmosphere containing 5% CO2. Methyl^14C-thymidine 56 mCi/mmol (NEN #NEC568 or Amersham #CFA532) was diluted in complete medium and 0.2 uCi/well was added to each well of the CytoStar plate in a volume of 20 ul. The plate was incubated for 24 hours at 37°C plus 5% CO2 in drug plus ^14C-thymidine. The contents of the plate were discarded into a ^14C radioactive waste container by inverting the plate and the plate was washed twice with 200 µl PBS. 200 µl of PBS is added to each well. The top of the plate was sealed with a transparent plate sealer and a white plate backing sealer (Packard #6005199) was applied to the bottom of the plate. The degree of methyl ^14C-thymidine incorporation was quantified on a Packard Top Count.
A general note: Incorporation of labelled thymidine or its analogues reports DNA synthesis.

In assay [1] the target is T1, EGFR (epidermal growth factor receptor) (Homo sapiens, UniProt P00533).
T1 construct: is purified from human A431 cell membranes (Sigma, St. Louis, MO, Cat.# E3641); purchased Sigma, St. Louis, MO E3641; host or cells: human A431 cell membranes (endogenous protein)
Kind of assay: Kinase Selectivity Assay EGF-R. It counts as biochemical.

The test system of the next assay is HCT-116 colon carcinoma. Kind of assay: Inhibition of Cell Proliferation, 14C-thymidine incorporation, HCT-116. The following applies: Homo sapiens; Cell Line HCT-116. The class given is cell-based. As for the experimental part: as §1
A further assay concerns the target Insulin Receptor Kinase (Homo sapiens, UniProt P06213). Nature of the assay: Kinase Selectivity Assay Insulin Receptor Kinase. The class given is biochemical. The following applies: read-out: Kinase Assay (IC50 uM) Insulin R Kinase.
For assay [2], the system named is HeLa cervical adenocarcinoma. Kind of assay: Inhibition of Cell Proliferation, 14C-thymidine incorporation, HeLa. The class given is cell-based. To be noted: Homo sapiens; Cell Line HeLa. As for the experimental part: as §1
In another assay the test system is MDA-MB-231. Kind of assay: Inhibition of Cell Proliferation, 14C-thymidine incorporation, MDA-MB-231. The class given is cell-based. To be noted: Homo sapiens; Cell Line MDA-MB-231.
Assay [3] has as its system PC-3 prostate adenocarcinoma. Kind of assay: Inhibition of Cell Proliferation, 14C-thymidine incorporation, PC-3. It counts as cell-based. To be noted: Cell Line PC-3. As for the experimental part: as §1
Assay [4] has as its target T2, CDK2 in complex with cyclin A (Homo sapiens, UniProt P24941).
T2 construct: purchased Upstate Biotech, Lake Placid, NY
Kind of assay: Kinase Selectivity Assay CDK2. It counts as biochemical.

The values below come from patent EP1712550A2, “Substituted triazole diamine derivatives as kinase inhibitors” (priority 2000, dated 2002).

For orientation: IC50 means the concentration needed to halve the response being measured.

Each structure is given as a SMILES string. Where two headings read alike, the source gives them in different places.

T1 sequence (P00533 25-1210): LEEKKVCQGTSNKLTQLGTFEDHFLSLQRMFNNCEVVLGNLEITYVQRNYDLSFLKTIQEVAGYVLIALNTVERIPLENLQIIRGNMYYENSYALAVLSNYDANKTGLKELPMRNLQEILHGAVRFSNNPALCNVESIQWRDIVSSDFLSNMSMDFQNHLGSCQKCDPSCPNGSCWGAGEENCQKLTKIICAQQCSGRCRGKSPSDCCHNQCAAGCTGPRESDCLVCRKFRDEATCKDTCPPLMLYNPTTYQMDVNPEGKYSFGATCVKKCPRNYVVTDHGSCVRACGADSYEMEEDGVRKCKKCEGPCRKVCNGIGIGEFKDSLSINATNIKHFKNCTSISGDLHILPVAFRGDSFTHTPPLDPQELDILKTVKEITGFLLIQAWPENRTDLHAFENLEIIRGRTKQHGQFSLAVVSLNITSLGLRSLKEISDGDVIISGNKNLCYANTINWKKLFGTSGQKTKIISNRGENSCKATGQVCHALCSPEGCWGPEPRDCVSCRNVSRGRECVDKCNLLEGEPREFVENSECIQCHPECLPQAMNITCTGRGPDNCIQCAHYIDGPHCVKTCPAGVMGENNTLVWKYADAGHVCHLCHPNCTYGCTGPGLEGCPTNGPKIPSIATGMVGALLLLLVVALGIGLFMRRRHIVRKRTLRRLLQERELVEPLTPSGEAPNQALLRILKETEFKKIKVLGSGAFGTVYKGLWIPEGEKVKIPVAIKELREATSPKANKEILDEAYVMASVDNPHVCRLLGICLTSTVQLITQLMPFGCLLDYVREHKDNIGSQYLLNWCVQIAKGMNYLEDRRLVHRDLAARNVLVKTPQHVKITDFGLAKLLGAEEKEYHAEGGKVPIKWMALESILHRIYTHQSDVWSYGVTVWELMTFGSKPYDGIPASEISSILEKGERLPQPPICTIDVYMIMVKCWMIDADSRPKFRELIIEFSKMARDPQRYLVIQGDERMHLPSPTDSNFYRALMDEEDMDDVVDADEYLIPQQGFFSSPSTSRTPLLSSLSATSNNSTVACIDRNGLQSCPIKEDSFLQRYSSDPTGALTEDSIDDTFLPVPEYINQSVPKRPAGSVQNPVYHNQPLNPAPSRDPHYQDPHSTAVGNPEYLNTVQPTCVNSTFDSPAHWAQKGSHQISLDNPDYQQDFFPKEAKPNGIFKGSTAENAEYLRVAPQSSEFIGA
Chain of Insulin Receptor Kinase (P06213 980-1352): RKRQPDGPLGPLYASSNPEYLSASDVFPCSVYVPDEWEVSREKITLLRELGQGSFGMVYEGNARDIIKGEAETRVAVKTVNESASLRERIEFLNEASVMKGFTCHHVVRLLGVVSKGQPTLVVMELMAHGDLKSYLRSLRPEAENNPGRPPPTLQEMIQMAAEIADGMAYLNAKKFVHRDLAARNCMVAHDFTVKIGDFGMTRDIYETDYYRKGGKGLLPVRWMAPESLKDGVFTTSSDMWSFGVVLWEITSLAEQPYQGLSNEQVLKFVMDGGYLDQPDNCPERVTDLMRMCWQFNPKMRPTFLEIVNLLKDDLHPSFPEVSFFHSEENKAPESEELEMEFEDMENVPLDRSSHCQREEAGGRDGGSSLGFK
Method for MDA-MB-231: The ability of a test compound to inhibit the proliferation of cell growth was determined by measuring incorporation of ^14C-labelled thymidine into newly synthesized DNA within the cells. […] Cells were trypsinized and counted and 3000-8000 cells were added to each well of a 96-well CytoStar tissue culture treated scintillating microplate (Amersham #RPNQ0160) in complete medium in a volume of 100 µl. Cells were incubated for 24 hours in complete medium at 37°C in an atmosphere containing 5% CO2. Next, 1 µl of test compound in 100% DMSO was added to the wells of the plate. DMSO only was added to control wells. Cells were incubated for 24 more hours in complete medium at 37°C in an atmosphere containing 5% CO2. […] The plate was incubated for 24 hours at 37°C plus 5% CO2 in drug plus ^14C-thymidine. The contents of the plate were discarded into a ^14C radioactive waste container by inverting the plate and the plate was washed twice with 200 µl PBS. 200 µl of PBS is added to each well. […] The degree of methyl ^14C-thymidine incorporation was quantified on a Packard Top Count.

For the compound `Cc1cc(C)c(C(=O)n2nc(Nc3ccc(NS(C)(=O)=O)cc3)nc2N)s1` [Cpd 108, N-[4-[[5-amino-1-[(3,5-dimethyl-2-thienyl)carbonyl]-1H-1,2,4-triazol-3-yl]amino]phenyl]-methanesulfonamide], the IC50 in the assay on A375 malignant melanoma is 259 nM; in assay [1] (read-out: Kinase Assay (IC50 uM) EGF-R) it was more than 100 µM; in the assay with HCT-116 colon carcinoma it was 76 nM; on Insulin Receptor Kinase it was 0.81 µM; in assay [2], 221 nM.
Regarding `Cc1cc(C)c(C(=O)n2nc(Nc3ccc(S(N)(=O)=O)cc3)nc2N)s1` [Cpd 33, 4-[[5-amino-1-[(3,5-dimethyl-2-thienyl)carbonyl]-1H-1,2,4-triazol-3-yl]amino]-benzenesulfonamide], the concentration for half-maximal inhibition (IC50) in assay [1] (Kinase Selectivity, Table 2, read-out: EGF-R IC50) was more than 100 µM; in the assay on MDA-MB-231, 171 nM; with HCT-116 colon carcinoma, 27 nM; in assay [2] it was 72 nM; in assay [3], 37 nM.
In assay [4], `Nc1nc(Nc2cccc(Cl)c2)n(C(=O)c2ccccc2)n1` [Cpd 127, 1-benzoyl-N^5-(3-chlorophenyl)-1H-1,2,4-triazole-3,5-diamine] showed an IC50 of more than 100 µM.
Consider `Nc1nc(Nc2cccc(Cl)c2)n(C(=O)c2c(F)cccc2F)n1` [Cpd 126, N^5-(3-chlorophenyl)-1-(2,6-difluorobenzoyl)-1H-1,2,4-triazole-3,5-diamine], for which the IC50 in assay [4] was more than 100 µM.
